Series [1] has as its system Chondrocytes, prepared from rabbit rib cartilage. In words: Anti-collagenase action in rabbit chondrocytes (IL-1-induced collagenase production). The series is classed as cell-based. As to conditions: IL-1 30 ng/ml added, 48 hours, mean±SE, control with IL-1 21.9 ± 1.7, without IL-1 0.1 ± 0.1. How it is done:
Chondrocytes, prepared from rabbit rib cartilage, were suspended in Dulbecco's MEM (DMEM) supplemented with 10% FCS, sown to 12-well plates, and cultured until a confluent state was reached. After the culture broth was removed, the cells were cultured for 48 hours in serum-free DMEM containing IL-1 (30 ng/ml) and the sample compound. The collagenase produced upon induction by IL-1 stimulation and secreted in the culture broth was activated by trypsinization; after a soybean trypsin inhibitor was added to inactivate the trypsin, activity was determined with type I collagen as the substrate. The values obtained are given in mean±SE in Table 3. The data were statistically analyzed by Student's t-test.

On to `CSc1oc(C(=O)O)c2c1-c1nc(-c3ccccc3)sc1CC2` [Example 25, 4,5-dihydro-8-methylthio-2-phenylfuro[3,4-e]benzothiazole-6-carboxylic acid], for which the melting point is 206 to 207 °C (dec.). For the same compound, the “Collagenase Activity (units/ml)” value in series [1] (compound 10^−5 M) amounted to 1.8 ± 0.6 units/ml. The “Collagenase Activity (units/ml)” value in series [1] (compound 10^−6 M) is on record as 11.0 ± 0.8 units/ml.

The values above are taken from patent publication US6489351B1, “Condensed 4,5,6,7-tetrahydrobenzo[C]thiophenes as enhancer for cell differentation induction factor action” (Takeda Chemical Industries, Ltd., priority 1996, dated 2002).
